Experiment: Stability of QC samples in rat plasma and tissue homogenates under different storage conditions
Assay type: in vitro ADME
Details: in % (unit assumed)

## C/C=C1/COC(=O)[C@H]2C(=O)N3CCc4c([nH]c5ccccc45)[C@@H]3C[C@@H]12 [Naucleactonin C]
Brain, 5 ng/mL
  Accuracy, Ambient temperature for 4 h: 106.35 ± 11.82
  Accuracy, Autosampler at 4°C for 8 h: 109.83 ± 6.05
  Accuracy, Three freeze-thraw cycles: 98.92 ± 10.65
  Accuracy, −80°C for 30 days: 104.10 ± 10.88
Brain, 8 ng/mL
  Accuracy, Ambient temperature for 4 h: 88.87 ± 10.43
  Accuracy, Autosampler at 4°C for 8 h: 90.65 ± 6.37
  Accuracy, Three freeze-thraw cycles: 89.95 ± 9.23
  Accuracy, −80°C for 30 days: 88.82 ± 10.57
Brain, 140 ng/mL
  Accuracy, Ambient temperature for 4 h: 88.33 ± 6.74
  Accuracy, Autosampler at 4°C for 8 h: 87.92 ± 8.15
  Accuracy, Three freeze-thraw cycles: 87.20 ± 4.98
  Accuracy, −80°C for 30 days: 87.93 ± 5.81
Brain, 2400 ng/mL
  Accuracy, Ambient temperature for 4 h: 99.43 ± 6.38
  Accuracy, Autosampler at 4°C for 8 h: 112.67 ± 6.62
  Accuracy, Three freeze-thraw cycles: 109.67 ± 6.44
  Accuracy, −80°C for 30 days: 109.00 ± 5.22
Heart, 5 ng/mL
  Accuracy, Ambient temperature for 4 h: 111.97 ± 11.63
  Accuracy, Autosampler at 4°C for 8 h: 100.78 ± 9.63
  Accuracy, Three freeze-thraw cycles: 107.98 ± 9.45
  Accuracy, −80°C for 30 days: 107.42 ± 10.24
Heart, 8 ng/mL
  Accuracy, Ambient temperature for 4 h: 110.50 ± 4.42
  Accuracy, Autosampler at 4°C for 8 h: 107.25 ± 9.25
  Accuracy, Three freeze-thraw cycles: 109.08 ± 8.25
  Accuracy, −80°C for 30 days: 110.87 ± 9.04
Heart, 140 ng/mL
  Accuracy, Ambient temperature for 4 h: 102.78 ± 6.89
  Accuracy, Autosampler at 4°C for 8 h: 104.88 ± 3.80
  Accuracy, Three freeze-thraw cycles: 100.40 ± 9.13
  Accuracy, −80°C for 30 days: 98.28 ± 5.70
Heart, 2400 ng/mL
  Accuracy, Ambient temperature for 4 h: 112.33 ± 10.41
  Accuracy, Autosampler at 4°C for 8 h: 111.50 ± 5.68
  Accuracy, Three freeze-thraw cycles: 112.33 ± 5.72
  Accuracy, −80°C for 30 days: 110.50 ± 4.81
Kidney, 5 ng/mL
  Accuracy, Ambient temperature for 4 h: 109.33 ± 7.55
  Accuracy, Autosampler at 4°C for 8 h: 106.08 ± 8.96
  Accuracy, Three freeze-thraw cycles: 98.92 ± 9.91
  Accuracy, −80°C for 30 days: 97.18 ± 10.46
Kidney, 8 ng/mL
  Accuracy, Ambient temperature for 4 h: 99.10 ± 4.24
  Accuracy, Autosampler at 4°C for 8 h: 97.38 ± 7.31
  Accuracy, Three freeze-thraw cycles: 91.10 ± 9.20
  Accuracy, −80°C for 30 days: 94.77 ± 7.62
Kidney, 140 ng/mL
  Accuracy, Ambient temperature for 4 h: 96.08 ± 7.36
  Accuracy, Autosampler at 4°C for 8 h: 95.43 ± 7.99
  Accuracy, Three freeze-thraw cycles: 101.10 ± 4.98
  Accuracy, −80°C for 30 days: 100.25 ± 8.25
Kidney, 2400 ng/mL
  Accuracy, Ambient temperature for 4 h: 108.00 ± 5.62
  Accuracy, Autosampler at 4°C for 8 h: 103.87 ± 4.68
  Accuracy, Three freeze-thraw cycles: 104.57 ± 6.09
  Accuracy, −80°C for 30 days: 102.30 ± 5.90
Liver, 5 ng/mL
  Accuracy, Ambient temperature for 4 h: 101.78 ± 11.83
  Accuracy, Autosampler at 4°C for 8 h: 107.70 ± 5.36
  Accuracy, Three freeze-thraw cycles: 98.32 ± 6.66
  Accuracy, −80°C for 30 days: 98.38 ± 12.07
Liver, 8 ng/mL
  Accuracy, Ambient temperature for 4 h: 87.60 ± 5.90
  Accuracy, Autosampler at 4°C for 8 h: 86.47 ± 4.52
  Accuracy, Three freeze-thraw cycles: 90.60 ± 4.91
  Accuracy, −80°C for 30 days: 86.00 ± 8.60
Liver, 140 ng/mL
  Accuracy, Ambient temperature for 4 h: 88.57 ± 2.44
  Accuracy, Autosampler at 4°C for 8 h: 95.00 ± 4.15
  Accuracy, Three freeze-thraw cycles: 96.28 ± 4.36
  Accuracy, −80°C for 30 days: 97.32 ± 7.17
Liver, 2400 ng/mL
  Accuracy, Ambient temperature for 4 h: 98.93 ± 3.81
  Accuracy, Autosampler at 4°C for 8 h: 91.37 ± 2.51
  Accuracy, Three freeze-thraw cycles: 89.35 ± 3.70
  Accuracy, −80°C for 30 days: 89.97 ± 7.32
Lung, 5 ng/mL
  Accuracy, Ambient temperature for 4 h: 109.50 ± 11.47
  Accuracy, Autosampler at 4°C for 8 h: 100.40 ± 10.26
  Accuracy, Three freeze-thraw cycles: 101.05 ± 5.33
  Accuracy, −80°C for 30 days: 95.98 ± 10.47
Lung, 8 ng/mL
  Accuracy, Ambient temperature for 4 h: 94.73 ± 8.92
  Accuracy, Autosampler at 4°C for 8 h: 91.40 ± 9.71
  Accuracy, Three freeze-thraw cycles: 101.90 ± 10.45
  Accuracy, −80°C for 30 days: 99.03 ± 10.49
Lung, 140 ng/mL
  Accuracy, Ambient temperature for 4 h: 102.38 ± 4.12
  Accuracy, Autosampler at 4°C for 8 h: 94.45 ± 5.92
  Accuracy, Three freeze-thraw cycles: 93.75 ± 8.53
  Accuracy, −80°C for 30 days: 92.58 ± 3.60
Lung, 2400 ng/mL
  Accuracy, Ambient temperature for 4 h: 111.37 ± 9.27
  Accuracy, Autosampler at 4°C for 8 h: 111.85 ± 9.53
  Accuracy, −80°C for 30 days: 111.67 ± 3.39
Plasma, 5 ng/mL
  Accuracy, Ambient temperature for 4 h: 101.95 ± 10.33
  Accuracy, Autosampler at 4°C for 8 h: 106.67 ± 10.88
  Accuracy, Three freeze-thraw cycles: 91.87 ± 8.63
  Accuracy, −80°C for 30 days: 109.57 ± 12.66
Plasma, 8 ng/mL
  Accuracy, Ambient temperature for 4 h: 108.88 ± 1.87
  Accuracy, Autosampler at 4°C for 8 h: 105.01 ± 6.32
  Accuracy, Three freeze-thraw cycles: 105.88 ± 1.87
  Accuracy, −80°C for 30 days: 113.33 ± 5.32
Plasma, 140 ng/mL
  Accuracy, Ambient temperature for 4 h: 87.67 ± 9.20
  Accuracy, Autosampler at 4°C for 8 h: 87.88 ± 4.14
  Accuracy, Three freeze-thraw cycles: 111.88 ± 1.87
  Accuracy, −80°C for 30 days: 111.57 ± 9.60
Plasma, 2400 ng/mL
  Accuracy, Ambient temperature for 4 h: 88.93 ± 6.01
  Accuracy, Autosampler at 4°C for 8 h: 89.25 ± 7.58
  Accuracy, Three freeze-thraw cycles: 89.17 ± 7.49
  Accuracy, −80°C for 30 days: 113.83 ± 7.14
Small intestine, 5 ng/mL
  Accuracy, Ambient temperature for 4 h: 111.90 ± 12.07
  Accuracy, Autosampler at 4°C for 8 h: 111.67 ± 8.14
  Accuracy, Three freeze-thraw cycles: 111.17 ± 8.33
  Accuracy, −80°C for 30 days: 112.67 ± 8.78
Small intestine, 8 ng/mL
  Accuracy, Ambient temperature for 4 h: 103.33 ± 3.39
  Accuracy, Autosampler at 4°C for 8 h: 100.03 ± 11.46
  Accuracy, Three freeze-thraw cycles: 100.60 ± 10.24
  Accuracy, −80°C for 30 days: 104.25 ± 9.49
Small intestine, 140 ng/mL
  Accuracy, Ambient temperature for 4 h: 88.60 ± 9.48
  Accuracy, Autosampler at 4°C for 8 h: 89.80 ± 8.30
  Accuracy, Three freeze-thraw cycles: 87.88 ± 5.57
  Accuracy, −80°C for 30 days: 90.17 ± 7.26
Small intestine, 2400 ng/mL
  Accuracy, Ambient temperature for 4 h: 107.48 ± 8.23
  Accuracy, Autosampler at 4°C for 8 h: 103.75 ± 6.68
  Accuracy, Three freeze-thraw cycles: 108.43 ± 8.65
  Accuracy, −80°C for 30 days: 102.32 ± 8.65
Spleen, 5 ng/mL
  Accuracy, Ambient temperature for 4 h: 110.33 ± 8.71
  Accuracy, Autosampler at 4°C for 8 h: 112.92 ± 8.72
  Accuracy, Three freeze-thraw cycles: 110.67 ± 8.57
  Accuracy, −80°C for 30 days: 109.68 ± 12.57
Spleen, 8 ng/mL
  Accuracy, Ambient temperature for 4 h: 99.28 ± 13.31
  Accuracy, Autosampler at 4°C for 8 h: 93.42 ± 8.00
  Accuracy, Three freeze-thraw cycles: 96.13 ± 11.98
  Accuracy, −80°C for 30 days: 101.90 ± 10.25
Spleen, 140 ng/mL
  Accuracy, Ambient temperature for 4 h: 93.13 ± 6.10
  Accuracy, Autosampler at 4°C for 8 h: 95.27 ± 7.08
  Accuracy, Three freeze-thraw cycles: 89.18 ± 8.23
  Accuracy, −80°C for 30 days: 92.35 ± 2.70
Spleen, 2400 ng/mL
  Accuracy, Ambient temperature for 4 h: 103.33 ± 8.37
  Accuracy, Autosampler at 4°C for 8 h: 105.67 ± 8.50
  Accuracy, Three freeze-thraw cycles: 107.73 ± 8.10
  Accuracy, −80°C for 30 days: 109.83 ± 4.96
Stomach, 5 ng/mL
  Accuracy, Ambient temperature for 4 h: 111.00 ± 7.90
  Accuracy, Autosampler at 4°C for 8 h: 112.17 ± 7.25
  Accuracy, Three freeze-thraw cycles: 113.12 ± 9.97
  Accuracy, −80°C for 30 days: 113.83 ± 2.99
Stomach, 8 ng/mL
  Accuracy, Ambient temperature for 4 h: 107.32 ± 12.96
  Accuracy, Autosampler at 4°C for 8 h: 98.37 ± 10.75
  Accuracy, Three freeze-thraw cycles: 105.90 ± 9.13
  Accuracy, −80°C for 30 days: 103.55 ± 9.49
Stomach, 140 ng/mL
  Accuracy, Ambient temperature for 4 h: 88.15 ± 7.91
  Accuracy, Autosampler at 4°C for 8 h: 86.38 ± 8.38
  Accuracy, Three freeze-thraw cycles: 87.12 ± 5.24
  Accuracy, −80°C for 30 days: 88.28 ± 6.31
Stomach, 2400 ng/mL
  Accuracy, Ambient temperature for 4 h: 100.53 ± 7.29
  Accuracy, Autosampler at 4°C for 8 h: 99.52 ± 5.85
  Accuracy, Three freeze-thraw cycles: 104.90 ± 5.53
  Accuracy, −80°C for 30 days: 102.32 ± 8.22
